# Patent US8673938B2, “Chemical compounds” (priority 2006, dated 2014)
# Molecular target: human 11βHSD1 enzyme (Homo sapiens (Human), UniProt P28845)
# Experiment: biochemical
# Conditions: read-out: % inhibition of human 11-βHSD
# Protocol: The evaluation of compounds described herein was carried out using a baculovirus expressed N terminal 6-His tagged full length human 11βHSD1 enzyme(*1). […] Inhibitors of 11βHSD1 reduce the conversion of cortisone to cortisol, which is identified by an increase in signal, in the above assay.
# Compounds to be tested were dissolved in dimethyl sulphoxide (DMSO) to 10 mM and diluted further in assay buffer containing 1% DMSO to 10 fold the final assay concentration. Diluted compounds were then plated into black 384 well plates (Matrix, Hudson N.H., USA).
# The assay plates were incubated for 25 minutes at 37° C. after which time the reaction was stopped by the addition of 10 μl of 0.5 mM glycerrhetinic acid plus conjugated cortisol (XL665 or D2). 10 μl of anti-cortisol Cryptate was then added and the plates sealed and incubated for 6 hours at room temperature.
# Chain of human 11βHSD1 enzyme (P28845 whole entry): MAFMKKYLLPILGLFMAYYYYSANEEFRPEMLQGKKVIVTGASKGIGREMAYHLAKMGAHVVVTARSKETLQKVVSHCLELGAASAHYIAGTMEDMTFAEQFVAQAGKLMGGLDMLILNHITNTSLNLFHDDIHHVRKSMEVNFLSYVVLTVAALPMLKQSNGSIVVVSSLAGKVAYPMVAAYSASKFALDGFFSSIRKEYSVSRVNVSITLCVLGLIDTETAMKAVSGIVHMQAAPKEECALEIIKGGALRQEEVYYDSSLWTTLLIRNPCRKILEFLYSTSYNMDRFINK
row,Structure (SMILES),inhibition at 30 µM [%]
1,"CC(=O)N1CCN(c2nc(N3CCC[C@@H](CC(=O)O)C3)ccc2C(=O)NC2CCCCC2)CC1 [compound 147, 2-[(3S)-1-[6-(4-acetylpiperazin-1-yl)-5-(cyclohexylcarbamoyl)pyridin-2-yl]-3-piperidyl]acetic acid]",86
2,"CC(C)CCSc1nc(N2CCC[C@@H](CC(=O)O)C2)ccc1C(=O)NC1C2CC3CC1CC(O)(C3)C2 (stereo partly drawn) [Example 104, 2-[(3S)-l-[5-[[(2r,5s)-5-hydroxy-2-adamantyl]carbamoyl)-6-(3-methylbutylsulfanyl)pyridin-2-yl]-3-piperidyl]acetic acid]",87
3,CCCSc1nc(N2CCC[C@@H](CC(=O)O)C2)ccc1C(=O)N[C@H]1C2CC3CC1C[C@@](O)(C3)C2 [Example 83],87
4,"CCCSc1nc(N2CCC[C@@H](CC(=O)O)C2)ccc1C(=O)N1CCC(C(N)=O)CC1 [Example 120, 2-[(3S)-1-[5-(4-carbamoylpiperidine-1-carbonyl)-6-propylsulfanyl-pyridin-2-yl]-3-piperidyl]acetic acid]",104
5,"O=C(O)C[C@@H]1CCCN(c2ccc(C(=O)NC3CCCCC3)c(SCCc3ccccc3)n2)C1 [Example 130, 2-[(3S)-1-[5-(cyclohexylcarbamoyl)-6-phenethylsulfanyl-pyridin-2-yl]-3-piperidyl]acetic acid]",91
6,"CCCSc1nc(Oc2ccc(OCC(=O)O)cc2)ccc1C(=O)NC1CCCCC1 [Example 20, 2-[4-[5-(cyclohexylcarbamoyl)-6-propylsulfanyl-pyridin-2-yl]oxyphenoxy]acetic acid]",89
7,"CCCSc1nc(N[C@H]2C3CC4CC2C[C@@](C(=O)O)(C4)C3)ccc1C(=O)NC1CCCCC1 [Example 10, (3R,5S)-4-[[5-(cyclohexylcarbamoyl)-6-propylsulfanyl-pyridin-2-yl]amino]adamantane-1-carboxylic acid]",88
8,CCCSc1nc(N2CCCC(OCC(=O)O)C2)ccc1C(=O)NC1CCCCC1 (stereo not shown) [Example 46],83
9,"O=C(O)C[C@@H]1CCCN(c2ccc(C(=O)NC3CCCCC3)c(OCCc3ccc(F)cc3)n2)C1 [compound 135, 2-[(3S)-1-[5-(cyclohexyl-carbamoyl)-6-[2-(4-fluorophenyl)ethoxy]pyridin-2-yl]-3-piperidyl] acetic acid]",92
10,"CCCSc1nc(Sc2cccc(C(=O)O)c2)ccc1C(=O)NC1CCCCC1 [Example 14, 3-[5-(cyclohexylcarbamoyl)-6-propylsulfanyl-pyridin2-yl]sulfanylbenzoic acid]",78
11,"CCCSc1nc(N2CCC[C@@H](CC(=O)O)C2)ccc1C(=O)N(CC1CC1)C1CCCCC1 [Example 122, 2-[(3S)-1-[5-(cyclohexyl-(cyclopropylmethyl)carbamoyl)-6-propylsulfanyl-pyridin-2-yl]-3-piperidyl]acetic acid]",88
12,"CCCSc1nc(N2CCCC(CC(=O)O)C2)ccc1C(=O)NC1CCCCC1 (stereo not shown) [Example 5, 2-[1-[5-(cyclohexylcarbamoyl)-6-propylsulfanyl-pyridin-2-yl]-3-piperidyl]acetic acid]",86
13,"CCCSc1nc(N2CC[C@@H](CC(=O)O)C2)ccc1C(=O)N[C@H]1C2CC3CC1C[C@](OC(F)F)(C3)C2 [Example 180, 2-[(3S)-1-[5-[[(2r,5s)-5-(Difluoromethoxy)-2-adamantyl]carbamoyl]-6-propylsulfanyl-pyridin-2-yl]pyrrolidin-3-yl]acetic acid]",95
14,"CCCSc1nc(N2CCCC(C3(C(=O)O)CCC3)C2)ccc1C(=O)NC1CCCCC1 (stereo not shown) [Example 41, 1-[1-[5-(cyclohexylcarbamoyl)-6-propylsulfanyl-pyridin-2-yl]-3-piperidyl]cyclobutane-1-carboxylic acid]",82
15,"CCCSc1nc(N2CCC(C(=O)O)(C(C)C)CC2)ccc1C(=O)NC1CCCCC1 [Example 35, 4-[5-(cyclohexylcarbamoyl)-6-propylsulfanyl-pyridin-2-yl]-4-propan-2-yl-piperidine-4-carboxylic acid]",93
16,CCCSc1nc(N2CCCC(OC(C)C(=O)O)C2)ccc1C(=O)NC1CCCCC1 (stereo not shown) [Example 44],85
17,"CCCSc1nc(N2CCC[C@@H](CC(=O)O)C2)ccc1C(=O)N(C)C1CCOCC1 [Example 174, [(3S)-1-{5-[Methyl(tetrahydro-2H-pyran-4-yl)carbamoyl]-6-(propylthio)pyridin-2-yl}piperidin-3-yl]acetic acid]",92
18,"CCCSc1nc(Oc2cccc(C(=O)O)c2)ccc1C(=O)NC1CCCCC1 [Example 13, 3-[5-(cyclohexylcarbamoyl)-6-propylsulfanyl-pyridin-2-yl]oxybenzoic acid]",94
19,"CCCSc1nc(N2CCCC(CCC(=O)O)C2)ccc1C(=O)NC1CCCCC1 (stereo not shown) [Example 39, 3-[1-[5-(cyclohexylcarbamoyl)-6-propylsulfanyl-pyridin-2-yl]-3-piperidyl]propanoic acid]",74

row,Structure (SMILES),inhibition at 30 µM [%]
1,"CCCSc1nc(N2CCCC(C(=O)O)CC2)ccc1C(=O)NC1CCCCC1 (stereo not shown) [Example 31, 1-[5-(cyclohexylcarbamoyl)-6-propylsulfanyl-pyridin-2-yl]azepane-4-carboxylic acid]",94
2,"O=C(O)C[C@H]1CCN(c2ccc(C(=O)N[C@H]3C4CC5CC3C[C@](O)(C5)C4)c(SC3CCCCC3)n2)C1 [Example 100, 2-[(3R)-1-[6-cyclohexylsulfanyl-5-[((2r,5s)-5-hydroxy-2-adamantyl)carbamoyl]pyridin-2-yl]pyrrolidin-3-yl]acetic acid]",92
3,"O=C(O)CO[C@@H]1CCN(c2ccc(C(=O)NC3C4CC5CC(C4)CC3C5)c(SC3CCCC3)n2)C1 (stereo partly drawn) [Example 70, 2-[(3R)-1-[5-(2-adamantylcarbamoyl)-6-cyclopentylsulfanyl-pyridin-2-yl]pyrrolidin-3-yl]oxyacetic acid]",95
4,"CCCSc1nc(Oc2ccc(C(C)C(=O)O)cc2)ccc1C(=O)NC1CCCCC1 (stereo not shown) [Example 21, 2-[4-[5-(cyclohexylcarbamoyl)-6-propylsulfanyl-pyridin-2-yl]oxyphenyl]propanoic acid]",88
5,"CCCSc1nc(N2CC[C@@H](C(=O)O)C2)ccc1C(=O)NC1C2CC3CC(C2)CC1C3 (stereo partly drawn) [Example 63, (3R)-1-[5-(2-adamantylcarbamoyl)-6-propylsulfanyl-pyridin-2-yl]pyrrolidine-3-carboxylic acid]",91
6,"CCCSc1nc(N2CCC[C@@H](CC(=O)O)C2)ccc1C(=O)N1CCC(C(F)(F)F)CC1 [Example 119, 2-[(3S)-1-[6-propylsulfanyl-5-[4-(trilfuoromethyl)piperidine-1-carbonyl]pyridin-2-yl]-3-piperidyl]acetic acid]",99
7,"CCS(=O)(=O)N1CCN(c2nc(N3CCC[C@@H](CC(=O)O)C3)ccc2C(=O)NC2CCCCC2)CC1 [compound 148, 2-[(3S)-1-[5-(cyclohexyl-carbamoyl)-6-(4-ethylsulfonyl-piperazin-1-yl)pyridin-2-yl]-3-piperidyl]acetic acid]",56
8,"O=C(O)C[C@@H]1CCCN(c2ccc(C(=O)NC3CCCCC3)c(SCCc3cnccn3)n2)C1 [compound 132, 2-[(3S)-1-[5-(cyclohexyl-carbamoyl)-6-(2-pyrazin-2-ylethylsulfanyl)pyridin-2-yl]-3-piperidyl] acetic acid]",98
9,"CCCSc1nc(N2CC[C@H](CC(=O)O)C2)ccc1C(=O)NC1C2CC3CC(C2)CC1C3 (stereo partly drawn) [Example 64, 2-[(3R)-1-[5-(2-adamantylcarbamoyl)-6-propylsulfanyl-pyridin-2-yl]pyrrolidin-3-yl]acetic acid]",89
10,"CCCSc1nc(N2CCC[C@@H](CC(=O)O)C2)ccc1C(=O)N1CCC(c2cnccn2)C1 (stereo partly drawn) [Example 116, 2-[(3S)-1-[6-propylsulfanyl-5-(3-pyrazin-2-ylpyrrolidine-1-carbonyl)pyridin-2-yl]-3-piperidyl]acetic acid]",89
11,"O=C(N[C@H]1C2CC3CC1C[C@](O)(C3)C2)c1ccc(N2CCC[C@H]2C(=O)O)nc1SC1CCCCC1 [Example 101, (2S)-1-[6-cyclohexylsulfanyl-5-[((2r,5s)-5-hydroxy-2-adamantyl)carbamoyl]pyridin-2-yl]pyrrolidine-2-carboxylic acid]",100
12,"CCCSc1nc(N2CCC[C@@H](CC(=O)O)C2)ccc1C(=O)N1CCCCC1 [Example 115, 2-[(3S)-1-[5-(piperidine-1-carbonyl)-6-propylsulfanyl-pyridin-2-yl]-3-piperidyl]acetic acid]",93
13,"O=C(O)C[C@@H]1CCCN(c2ccc(C(=O)NC3CCCCC3)c(N3CCN(C(=O)c4ccc(F)cc4)CC3)n2)C1 [compound 146, 2-[(3S)-1-[5-(cyclohexyl-carbamoyl)-6-[4-(4-fluorobenzoyl)piperazin-1-yl]pyridin-2-yl]-3-piperidyl]acetic acid]",58
14,"CCCSc1nc(N2CCC(C)(C(=O)O)CC2)ccc1C(=O)N[C@H]1C2CC3CC1C[C@@](O)(C3)C2 [Example 88, 1-[5-[[(2r,5s)-5-hydroxy-2-adamantyl]carbamoyl]-6-propylsulfanyl-pyridin-2-yl]-4-methyl-piperidine-4-carboxylic acid]",89
15,"CCCSc1nc(N2CCC(CC(=O)O)CC2)ccc1C(=O)N[C@H]1C2CC3CC1C[C@@](O)(C3)C2 [Example 86, 2-[1-[5-[[(2r,5s)-5-hydroxy-2-adamantyl]carbamoyl]-6-propylsulfanyl-pyridin-2-yl]-4-piperidyl]acetic acid]",90
16,"CCCSc1nc(N2CCC[C@@H](CC(=O)O)C2)ccc1C(=O)N1CCC(c2ccccc2C(F)(F)F)C1 (stereo partly drawn) [Example 126, 2-[(3S)-1-[6-propylsulfanyl-5-[3-[2-(trifluoromethyl)phenyl]pyrrolidine-1-carbonyl]pyridin-2-yl]-3-piperidyl]acetic acid]",87
17,"O=C(O)C[C@@H]1CCCN(c2ccc(C(=O)NC3CCCCC3)c(N3CCCCC3)n2)C1 [compound 141, 2-[(3S)-1-[5-(cyclohexylcarbamoyl)-6-(1-piperidyl)pyridin-2-yl]-3-piperidyl]acetic acid]",96
18,O=C(O)C[C@@H]1CCCN(c2ccc(C(=O)N[C@H]3C4CC5CC3C[C@@](O)(C5)C4)c(SC3CCCCC3)n2)C1 [Example 103],90
